Measurements from PubChem BioAssay AID2060495 (Molecular Pharmacology Branch, DTP, NCI, 2025).

Tested on: 521955-158-R2-J5-PDC complex spheroid viability
Experiment: Anticancer human tumor 521955-158-R2-J5-PDC patient-derived pancreatic carcinoma cell line growth inhibition [GQUAD]
Conditions: for IC50: curve of first compound; for viability, T/C: stronger effect = lower value
In short: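 Multi-cell-type spheroids of tumor cells with HUVEC and mesenchymal stem cells, treated with drug combinations. Concentrations descend in half-log steps from near clinical Cmax, or from 10 microM where Cmax is unknown; viability read-out.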

[1] = second compound 0.0316 µM, first compound 0.0316 µM
[2] = second compound 0.0316 µM, first compound 0.1 µM
[3] = second compound 0.0316 µM, first compound 0.316 µM
[4] = second compound 0.0316 µM, first compound 1 µM
[5] = second compound 0.0316 µM, first compound 3.16 µM
[6] = second compound 0.0316 µM, first compound 10 µM
[7] = second compound 0.1 µM, first compound 0.0316 µM
[8] = second compound 0.1 µM, first compound 0.1 µM
[9] = second compound 0.1 µM, first compound 0.316 µM
[10] = second compound 0.1 µM, first compound 1 µM
[11] = second compound 0.1 µM, first compound 3.16 µM
[12] = second compound 0.1 µM, first compound 10 µM
[13] = second compound 0.316 µM, first compound 0.0316 µM
[14] = second compound 0.316 µM, first compound 0.1 µM
[15] = second compound 0.316 µM, first compound 0.316 µM
[16] = second compound 0.316 µM, first compound 1 µM
[17] = second compound 0.316 µM, first compound 3.16 µM
[18] = second compound 0.316 µM, first compound 10 µM
[19] = second compound 1 µM, first compound 0.0316 µM
[20] = second compound 1 µM, first compound 0.1 µM
[21] = second compound 1 µM, first compound 0.316 µM
[22] = second compound 1 µM, first compound 1 µM
[23] = second compound 1 µM, first compound 3.16 µM
[24] = second compound 1 µM, first compound 10 µM
[25] = second compound 3.16 µM, first compound 0.0316 µM
[26] = second compound 3.16 µM, first compound 0.1 µM
[27] = second compound 3.16 µM, first compound 0.316 µM
[28] = second compound 3.16 µM, first compound 1 µM
[29] = second compound 3.16 µM, first compound 3.16 µM
[30] = second compound 3.16 µM, first compound 10 µM
[31] = second compound 10 µM, first compound 0.0316 µM
[32] = second compound 10 µM, first compound 0.1 µM
[33] = second compound 10 µM, first compound 0.316 µM
[34] = second compound 10 µM, first compound 1 µM
[35] = second compound 10 µM, first compound 3.16 µM
[36] = second compound 10 µM, first compound 10 µM
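Note: spheroids exposed to agents for one week before reading.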
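Throughout, for viability, T/C: 100% = DMSO vehicle control viability.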

With C#Cc1c(F)ccc2cc(O)cc(-c3ncc4c(N5CC6CCC(C5)N6)nc(OCC56CCCN5CC(F)C6)nc4c3F)c12 (stereo unspecified) + Cc1cnc(CNC(=O)c2c(=O)c3ccc(N4CCCN(C)CC4)nc3n3c2sc2ccccc23)cn1 the IC50 (second compound 0.0316 µM) was < 31.6 nM, the IC50 (second compound 0.1 µM) was < 31.6 nM and the IC50 (second compound 0.316 µM) was < 31.6 nM. The IC50 (second compound 1 µM) was < 31.6 nM, the IC50 (second compound 3.16 µM) was < 31.6 nM and the IC50 (second compound 10 µM) was < 31.6 nM. It also gave a viability, T/C [1] of 35.4%, a viability, T/C [2] of 31.3% and a viability, T/C [3] of 26.2%. For the same molecule, the viability, T/C [4] was 19.1%, the viability, T/C [5] was 17.9% and the viability, T/C [6] was 13.9%. For the same molecule, the viability, T/C [7] was 24.5%, the viability, T/C [8] was 26.6% and the viability, T/C [9] was 21.4%. The viability, T/C [10] was 18.3%, the viability, T/C [11] was 17.2% and the viability, T/C [12] was 13.3%. For the same molecule, the viability, T/C [13] was 19.3%, the viability, T/C [14] was 20% and the viability, T/C [15] was 18.3%. It also gave a viability, T/C [16] of 16.1%, a viability, T/C [17] of 14.1% and a viability, T/C [18] of 11.5%. It also gave a viability, T/C [19] of 11.3%, a viability, T/C [20] of 12.6% and a viability, T/C [21] of 10.9%. It also gave a viability, T/C [22] of 8.41%, a viability, T/C [23] of 9.79% and a viability, T/C [24] of 5.56%. It also gave a viability, T/C [25] of 2.92%, a viability, T/C [26] of 0.7% and a viability, T/C [27] of 2.89%. For the same molecule, the viability, T/C [28] was 0.31%, the viability, T/C [29] was 0.11% and the viability, T/C [30] was 0.08%. For the same molecule, the viability, T/C [31] was 0.08%, the viability, T/C [32] was 0.7% and the viability, T/C [33] was 0.19%. For the same molecule, the viability, T/C [34] was 0.15%, the viability, T/C [35] was 0.18% and the viability, T/C [36] was 0.16%.

For CC(=O)O[C@H]1C(=O)[C@@]2(C)[C@H]([C@H](OC(=O)c3ccccc3)[C@]3(O)C[C@H](OC(=O)[C@H](O)[C@@H](NC(=O)c4ccccc4)c4ccccc4)C(C)=C1C3(C)C)[C@]1(OC(C)=O)CO[C@@H]1C[C@@H]2O + Cc1cnc(CNC(=O)c2c(=O)c3ccc(N4CCCN(C)CC4)nc3n3c2sc2ccccc23)cn1, the IC50 (second compound 0.0316 µM) was < 31.6 nM, the IC50 (second compound 0.1 µM) was < 31.6 nM and the IC50 (second compound 0.316 µM) was < 31.6 nM. The IC50 (second compound 1 µM) was < 31.6 nM, the IC50 (second compound 3.16 µM) was < 31.6 nM and the IC50 (second compound 10 µM) was < 31.6 nM. For the same molecule, the viability, T/C [1] was 23.3%, the viability, T/C [2] was 14.8% and the viability, T/C [3] was 11.8%. The viability, T/C [4] was 13.7%, the viability, T/C [5] was 11.2% and the viability, T/C [6] was 12.1%. For the same molecule, the viability, T/C [7] was 24.5%, the viability, T/C [8] was 15.2% and the viability, T/C [9] was 15.3%. For the same molecule, the viability, T/C [10] was 10.4%, the viability, T/C [11] was 12% and the viability, T/C [12] was 14.6%. For the same molecule, the viability, T/C [13] was 24.6%, the viability, T/C [14] was 16.7% and the viability, T/C [15] was 12.1%. The viability, T/C [16] was 10.6%, the viability, T/C [17] was 12% and the viability, T/C [18] was 12.1%. For the same molecule, the viability, T/C [19] was 15.1%, the viability, T/C [20] was 11% and the viability, T/C [21] was 8.58%. For the same molecule, the viability, T/C [22] was 9.85%, the viability, T/C [23] was 10.3% and the viability, T/C [24] was 8.46%. It also gave a viability, T/C [25] of 9.56%, a viability, T/C [26] of 3.21% and a viability, T/C [27] of 0.92%. The viability, T/C [28] was 0.43%, the viability, T/C [29] was 0.28% and the viability, T/C [30] was 3.89%. For the same molecule, the viability, T/C [31] was 0.14%, the viability, T/C [32] was 2.35% and the viability, T/C [33] was 0.16%. It also gave a viability, T/C [34] of 0.27%, a viability, T/C [35] of 2.45% and a viability, T/C [36] of 0.15%.

For CC[C@@]1(O)C(=O)OCc2c1cc1n(c2=O)Cc2cc3c(CN(C)C)c(O)ccc3nc2-1 + Cc1cnc(CNC(=O)c2c(=O)c3ccc(N4CCCN(C)CC4)nc3n3c2sc2ccccc23)cn1, the IC50 (second compound 0.0316 µM) was 56.2 nM, the IC50 (second compound 0.1 µM) was 27.8 nM and the IC50 (second compound 0.316 µM) was 10.7 nM. For the same molecule, the IC50 (second compound 1 µM) was < 0.999 nM, the IC50 (second compound 3.16 µM) was < 0.999 nM and the IC50 (second compound 10 µM) was < 0.999 nM. It also gave a viability, T/C (second compound 0.0316 µM, first compound 0.000999 µM) of 82.3%, a viability, T/C (second compound 0.0316 µM, first compound 0.00316 µM) of 80.4% and a viability, T/C (second compound 0.0316 µM, first compound 0.00999 µM) of 59.7%. It also gave a viability, T/C [1] of 71.6%, a viability, T/C (second compound 0.0316 µM, first compound 0.0999 µM) of 29% and a viability, T/C [3] of 12.1%. It also gave a viability, T/C (second compound 0.1 µM, first compound 0.000999 µM) of 74.9%, a viability, T/C (second compound 0.1 µM, first compound 0.00316 µM) of 78% and a viability, T/C (second compound 0.1 µM, first compound 0.00999 µM) of 73.3%. The viability, T/C [7] was 46.7%, the viability, T/C (second compound 0.1 µM, first compound 0.0999 µM) was 22.4% and the viability, T/C [9] was 16.2%. It also gave a viability, T/C (second compound 0.316 µM, first compound 0.000999 µM) of 51.6%, a viability, T/C (second compound 0.316 µM, first compound 0.00316 µM) of 47.2% and a viability, T/C (second compound 0.316 µM, first compound 0.00999 µM) of 55%. The viability, T/C [13] was 29.6%, the viability, T/C (second compound 0.316 µM, first compound 0.0999 µM) was 18.7% and the viability, T/C [15] was 15.6%. The viability, T/C (second compound 1 µM, first compound 0.000999 µM) was 23.7%, the viability, T/C (second compound 1 µM, first compound 0.00316 µM) was 24.9% and the viability, T/C (second compound 1 µM, first compound 0.00999 µM) was 24.6%. It also gave a viability, T/C [19] of 19%, a viability, T/C (second compound 1 µM, first compound 0.0999 µM) of 16.7% and a viability, T/C [21] of 11.2%. For the same molecule, the viability, T/C (second compound 3.16 µM, first compound 0.000999 µM) was 21.1%, the viability, T/C (second compound 3.16 µM, first compound 0.00316 µM) was 29.1% and the viability, T/C (second compound 3.16 µM, first compound 0.00999 µM) was 18.2%. The viability, T/C [25] was 17.8%, the viability, T/C (second compound 3.16 µM, first compound 0.0999 µM) was 11.8% and the viability, T/C [27] was 10.1%. For the same molecule, the viability, T/C (second compound 10 µM, first compound 0.000999 µM) was 21.3%, the viability, T/C (second compound 10 µM, first compound 0.00316 µM) was 23.7% and the viability, T/C (second compound 10 µM, first compound 0.00999 µM) was 22.1%. For the same molecule, the viability, T/C [31] was 15.7%, the viability, T/C (second compound 10 µM, first compound 0.0999 µM) was 11.5% and the viability, T/C [33] was 6.12%.
